Data reported in ChEMBL document CHEMBL3612029, “Design, synthesis and anticancer activity of Michael-type thiol adducts of α-santonin analogue with exocyclic methylene” (Eur J Med Chem, 2015).
pIC50: −log10 of the molar value.

Legend:
PC-3 = assay: Cytotoxicity against human PC3 cells assessed as growth inhibition after 48 hrs by sulphorhodamine B assay; assay type: functional, cell-based; details: PC-3, 48 h
MCF7 [1] = assay: Cytotoxicity against human MCF7 cells assessed as growth inhibition after 48 hrs by sulphorhodamine B assay; assay type: functional, cell-based; details: MCF7, 48 h
A549 = assay: Cytotoxicity against human A549 cells assessed as growth inhibition after 48 hrs by sulphorhodamine B assay; assay type: functional, cell-based; details: A549, 48 h
HCT-116 = assay: Cytotoxicity against human HCT116 cells assessed as growth inhibition after 48 hrs by sulphorhodamine B assay; assay type: functional, cell-based; details: HCT-116, 48 h
MCF7 [2] = assay: Cell cycle arrest in human MCF7 cells assessed as accumulation at subG1 phase after 24 hrs by propidium iodide staining-based flow cytometric analysis; assay type: functional
MCF7 [3] = assay: Cell cycle arrest in human MCF7 cells assessed as accumulation at subG1 phase at 1.5 uM after 24 hrs by propidium iodide staining-based flow cytometric analysis (reference value: 4.8%); assay type: functional
MCF7 [4] = assay: Cell cycle arrest in human MCF7 cells assessed as accumulation at subG1 phase at 2 uM after 24 hrs by propidium iodide staining-based flow cytometric analysis (reference value: 4.8%); assay type: functional
[5] = biological target: Transcription factor p65 (Homo sapiens) (UniProt Q04206); assay: Inhibition of NF-kappa-B p65 subunit binding to DNA response element in human MCF7 cell nuclear lysates after 24 hrs
Sequence of Transcription factor p65 (Homo sapiens) (Q04206 whole entry): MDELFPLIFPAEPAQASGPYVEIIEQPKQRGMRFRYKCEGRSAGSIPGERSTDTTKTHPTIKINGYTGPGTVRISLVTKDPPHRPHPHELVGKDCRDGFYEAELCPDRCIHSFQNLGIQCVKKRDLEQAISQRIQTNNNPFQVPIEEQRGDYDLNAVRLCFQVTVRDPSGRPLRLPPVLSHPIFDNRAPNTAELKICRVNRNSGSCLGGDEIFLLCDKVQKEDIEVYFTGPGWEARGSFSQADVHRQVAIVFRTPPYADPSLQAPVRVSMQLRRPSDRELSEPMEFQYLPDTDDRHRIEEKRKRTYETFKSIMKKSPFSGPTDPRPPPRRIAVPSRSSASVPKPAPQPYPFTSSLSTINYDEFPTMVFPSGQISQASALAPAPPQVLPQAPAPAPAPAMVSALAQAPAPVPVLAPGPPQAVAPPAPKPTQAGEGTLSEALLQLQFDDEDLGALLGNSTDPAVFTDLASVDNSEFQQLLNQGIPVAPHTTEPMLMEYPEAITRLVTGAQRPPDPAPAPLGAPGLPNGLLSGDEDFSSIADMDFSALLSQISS

[6] = biological target: Transcription factor p65 (Homo sapiens) (UniProt Q04206); assay: Inhibition of NF-kappa-B p65 subunit binding to DNA response element in human MCF7 cell nuclear lysates at 1.5 uM after 24 hrs relative to control
[7] = biological target: Transcription factor p65 (Homo sapiens) (UniProt Q04206); assay: Inhibition of NF-kappa-B p65 subunit binding to DNA response element in human MCF7 cell nuclear lysates at 2 uM after 24 hrs relative to control
[8] = biological target: Transcription factor p65 (Homo sapiens) (UniProt Q04206); assay: Inhibition of NF-kappa-B p65 subunit binding to DNA response element in human MCF7 cell nuclear lysates at 3 uM after 24 hrs relative to control
MCF7 [9] = assay: Cell cycle arrest in human MCF7 cells assessed as accumulation at subG1 phase at 1 uM after 24 hrs by propidium iodide staining-based flow cytometric analysis (reference value: 4.8%); assay type: functional
[10] = biological target: Transcription factor p65 (Homo sapiens) (UniProt Q04206); assay: Inhibition of NF-kappa-B p65 subunit binding to DNA response element in human MCF7 cell nuclear lysates at 1 uM after 24 hrs relative to control
MCF7 [11] = assay: Cell cycle arrest in human MCF7 cells assessed as accumulation at subG1 phase at 5 uM after 24 hrs by propidium iodide staining-based flow cytometric analysis (reference value: 4.8%); assay type: functional

SMILES	pIC50 (PC-3)	pIC50 (MCF7 [1])	pIC50 (A549)	pIC50 (HCT-116)	also measured
COc1ccccc1SC[C@@H]1C(=O)O[C@@H]2C3=C(C)C(=O)C=C[C@]3(C)CC[C@@H]12	4.39	4.44	< 4.30	4.34	–
CC1=C2[C@H]3OC(=O)[C@@H](CSc4ccc(C)cc4)[C@@H]3CC[C@@]2(C)C=CC1=O	5.24	5.22	5.13	4.92	–
CC1=C2[C@H]3OC(=O)[C@@H](CSc4ccccc4N)[C@@H]3CC[C@@]2(C)C=CC1=O	4.97	5.11	4.51	4.89	–
CC1=C2[C@H]3OC(=O)[C@@H](CSc4nc5ccccc5c(=O)[nH]4)[C@@H]3CC[C@@]2(C)C=CC1=O	4.51	4.76	4.74	4.69	–
CCSC[C@@H]1C(=O)O[C@@H]2C3=C(C)C(=O)C=C[C@]3(C)CC[C@@H]12	5.00	4.63	4.91	4.78	–
CC1=C2[C@H]3OC(=O)[C@@H](CSc4ccccc4)[C@@H]3CC[C@@]2(C)C=CC1=O	4.59	4.60	4.70	4.72	–
CC1=C2[C@H]3OC(=O)[C@@H](CSc4ccccc4C)[C@@H]3CC[C@@]2(C)C=CC1=O	4.68	4.68	6.05	4.67	–
CC1=C2[C@H]3OC(=O)[C@@H](CSc4ccc(F)cc4)[C@@H]3CC[C@@]2(C)C=CC1=O	5.35	5.14	5.96	6.10	–
CC1=C2[C@H]3OC(=O)[C@@H](CSC4CCCCC4)[C@@H]3CC[C@@]2(C)C=CC1=O	< 4.30	< 4.30	4.34	< 4.30	–
CC1=C2[C@H]3OC(=O)[C@@H](CSc4ccc(Br)cc4C)[C@@H]3CC[C@@]2(C)C=CC1=O	5.07	5.07	5.00	5.85	–
COc1ccc(SC[C@@H]2C(=O)O[C@@H]3C4=C(C)C(=O)C=C[C@]4(C)CC[C@@H]23)cc1	4.88	4.67	5.05	4.60	–
CC1=C2[C@H]3OC(=O)[C@@H](CSc4ccc(C)c(Br)c4)[C@@H]3CC[C@@]2(C)C=CC1=O	4.51	4.69	5.39	6.10	–
CC1=C2[C@H]3OC(=O)[C@@H](CSc4ccccc4Br)[C@@H]3CC[C@@]2(C)C=CC1=O	5.59	5.64	5.55	5.96	–
CC1=C2[C@H]3OC(=O)[C@@H](CSc4ccccc4Cl)[C@@H]3CC[C@@]2(C)C=CC1=O	5.04	4.63	5.18	4.78	–
O=c1[nH]cc(F)c(=O)[nH]1 [FLUOROURACIL]	–	–	–	5.35	–
CC1=C2[C@H]3OC(=O)[C@@H](CSc4ccccc4F)[C@@H]3CC[C@@]2(C)C=CC1=O	5.70	5.92	5.74	6.05	–
CC1=C2[C@H]3OC(=O)[C@@H](CSc4ccc(Cl)cc4)[C@@H]3CC[C@@]2(C)C=CC1=O	5.68	6.00	5.57	6.10	Activity (MCF7 [2]): Dose-dependent effect; Activity (MCF7 [3]): 45.1%; Activity (MCF7 [4]): 46.6%; inhibition [5]: Dose-dependent effect; inhibition [6]: 36%; inhibition [7]: 49%; inhibition [8]: 62%
CC1=C2[C@H]3OC(=O)[C@@H](CSc4ccc(F)c(F)c4)[C@@H]3CC[C@@]2(C)C=CC1=O	5.54	6.00	5.23	6.15	–
CC1=C2[C@H]3OC(=O)[C@@H](CSc4nc5ccccc5n4C)[C@@H]3CC[C@@]2(C)C=CC1=O	4.46	4.41	4.38	4.68	–
C=C1C(=O)O[C@@H]2C3=C(C)C(=O)C=C[C@]3(C)CC[C@@H]12	4.49	4.60	< 4.30	4.50	–
CC1=C2[C@H]3OC(=O)[C@@H](CSc4ncc[nH]4)[C@@H]3CC[C@@]2(C)C=CC1=O	5.33	5.62	5.06	6.10	–
CC1=C2[C@H]3OC(=O)[C@@H](C)[C@@H]3CC[C@@]2(C)C=CC1=O [SANTONIN]	< 4.30	< 4.30	< 4.30	< 4.30	–
CC1=C2[C@H]3OC(=O)[C@@H](CSc4ccccn4)[C@@H]3CC[C@@]2(C)C=CC1=O	5.72	6.40	5.39	6.30	Activity (MCF7 [9]): 38%; Activity (MCF7 [3]): 44.6%; inhibition [5]: Dose-dependent effect; inhibition [6]: 43%; inhibition [10]: 27%
CC1=C2[C@H]3OC(=O)[C@@H](CSc4ccc(Br)cc4)[C@@H]3CC[C@@]2(C)C=CC1=O	5.82	6.22	5.62	5.92	Activity (MCF7 [2]): Dose-dependent effect; Activity (MCF7 [9]): 36.8%; Activity (MCF7 [3]): 44.5%; inhibition [5]: Dose-dependent effect; inhibition [6]: 45%; inhibition [7]: 57%
CC[C@@]1(O)C(=O)OCc2c1cc1n(c2=O)Cc2cc3ccccc3nc2-1 [CAMPTOTHECIN]	–	–	–	–	Activity (MCF7 [11]): 52.4%
